pKd: −log10 of the molar value.
What was measured:
PLA2 K53W/W3F = molecular target: T1, PLA2 K53W/W3F (Sus scrofa, UniProt P00592, R75W/W25F); assay: Bile salt binding by Trp emission, K53W/W3F PLA2; design: species or system pig; conditions: read-out: KEB
T1 construct: made in house
Method: (§1) Fluorescence emission spectrum or time course of the intensity change from tryptophan or the resonance energy transfer probe TMA-DPH were measured in the ratio mode on SLM-Aminco AB2 in a 1 cm cuvette [31, 32] in 1.6 ml stirred buffer containing 1 or 2 μM PLA2 in 10 mM Tris, 5 mM CaCl2 and 20 mM NaCl at pH 8.0 and 24° C. The slit-widths were 4 nm with excitation at 280.
(§2) As shown in [45], the binding of decylsulfate to the R site is accompanied by a modest increase in the emission intensity from Trp-3. […] As summarized in Table 2, the value of KEB depends on the position of Trp, although Hill coefficient remains 1. […] Note that KEB for the EB complex of ΔPLA2 is about 7-fold larger than that for PLA2.

WT (wild type) pig PLA2 = molecular target: T2, WT (wild type) pig PLA2 (Sus scrofa, UniProt P00592); assay: PLA2 catalyzed hydrolysis of sonicated DMPC vesicles with added bile salt (pH-stat); format: biochemical
T2 construct: made in house
Method: Aqueous dispersion of phospholipid was sonicated in a bath type sonicator. Virtually transparent suspension was annealed for at least 4 hours at room temperature before use. Reaction progress for the PLA2 catalyzed hydrolysis of sonicated DMPC (1 mM) vesicles was measured by pH-stat titration (Radiometer) with 1 mM 2-aminopropanediol in 4 ml reaction buffer containing 5 mM CaCl2 for DMPC (or 0.5 mM for DMPM), 1 mM NaCl, […] atmosphere. Reaction was initiated by adding 0.1 μg enzyme in 1-10 μl solution. The pH stat method was also used for monitoring the rate of hydrolysis of DMPM (0.4 mM) vesicles in the presence of polymyxin [27-29], or of the mixed-micelles of POPC with bile salts in 1:2 ratio [13, 30].
Delay before the onset of the stationary phase of the PLA2 catalyzed reaction progress for the hydrolysis of zwitterionic phospholipids has been extensively characterized. […] The apparent rates in FIG. 3 were obtained from the initial slopes of such reaction progress during which <5% of the total substrate is hydrolyzed.
The CMC of the bile salts used in this study range between 0.8 to 5 mM.

proPLA2 = proPLA2 (Sus scrofa, UniProt P00592); assay: Bile salt binding by Trp emission, proPLA2; design: species or system pig; conditions: read-out: KEB
Method: as §1, §2

Naja venom PLA2 = format: biochemical, Naja melanoleuca
Method: (§3) Aqueous dispersion of phospholipid was sonicated in a bath type sonicator. Virtually transparent suspension was annealed for at least 4 hours at room temperature before use. Reaction progress for the PLA2 catalyzed hydrolysis of sonicated DMPC (1 mM) vesicles was measured by pH-stat titration (Radiometer) with 1 mM 2-aminopropanediol in 4 ml reaction buffer containing 5 mM CaCl2 for DMPC (or 0.5 mM for DMPM), 1 mM NaCl, and 0.1 mM EDTA at pH 8.0 and 24° C. in the nitrogen purged closed atmosphere. Reaction was initiated by adding 0.1 μg enzyme in 1-10 μl solution. The pH stat method was also used for monitoring the rate of hydrolysis of DMPM (0.4 mM) vesicles in the presence of polymyxin [27-29], or of the mixed-micelles of POPC with bile salts in 1:2 ratio [13, 30].

pig pancreatic IB PLA2 = molecular target: T3, pig pancreatic IB PLA2 (Sus scrofa, UniProt P00592); assay: Rate-lowering of hydrolysis of DMPC + 0.05 mole fraction cholate vesicles by pig pancreatic PLA2; format: biochemical; conditions: 0.03 mole fraction; DMPC + 0.05 mole fraction cholate
T3 construct: made in house
Text: Independent support for selective binding of the rate lowering compounds to a regulatory site on PLA2 comes from the rate-lowering effect of such compounds on the hydrolysis of DMPC vesicles containing 0.05 mole fraction cholate.
Scores of other compounds in guggul were not active.

PLA2 R6M = PLA2 R6M (Sus scrofa, UniProt P00592, R28M); assay: Bile salt binding by Trp emission, R6M PLA2; design: species or system pig; conditions: read-out: KEB
Method: as §1, §2

[1] = molecular target: T4, (62-66)-loop deleted pig pancreatic IB ΔPLA2 (Sus scrofa, UniProt P00592, DEL84-88); assay: Hydrolysis of DMPC vesicles by (62-66)-loop deleted ΔPLA2 with added bile salt; format: biochemical
T4 construct: made in house
Method: as §3

PLA2 = molecular target: T5, PLA2 (Sus scrofa, UniProt P00592); assay: Quenching of RET signal from TMA-DPH bound to PLA2 by bile salts; format: binding, pig; conditions: 1 μM PLA2 and TMA-DPH, pH 8.0
T5 construct: made in house
Method: as §1

PLA2 K10W/W3F = molecular target: T6, PLA2 K10W/W3F (Sus scrofa, UniProt P00592, K32W/W25F); assay: Bile salt binding by Trp emission, K10W/W3F PLA2; design: species or system pig; conditions: read-out: KEB
T6 construct: made in house
Method: as §1, §2

PLA2 A1W/W3F = molecular target: T7, PLA2 A1W/W3F (Sus scrofa, UniProt P00592, A23W/W25F); assay: Bile salt binding by Trp emission, A1W/W3F PLA2; design: species or system pig; conditions: read-out: KEB
T7 construct: made in house
Method: as §1, §2

T2 sequence (P00592 23-146): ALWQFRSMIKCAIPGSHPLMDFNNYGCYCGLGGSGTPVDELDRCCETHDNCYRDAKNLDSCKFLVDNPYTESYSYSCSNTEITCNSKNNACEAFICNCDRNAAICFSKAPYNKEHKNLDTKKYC
PLA2 R6M, sequence (P00592 23-146 R28M): as the sequence (P00592 23-146) above, with R6M counted along it
T5 sequence (P00592 23-146): as the sequence (P00592 23-146) above
T3 sequence (P00592 23-146): as above
T7 sequence (P00592 23-146 A23W/W25F): as the sequence (P00592 23-146) above, with A1W, W3F counted along it
T1 sequence (P00592 23-146 W25F/R75W): as the sequence (P00592 23-146) above, with W3F, R53W counted along it
T6 sequence (P00592 23-146 W25F/K32W): as the sequence (P00592 23-146) above, with W3F, K10W counted along it
proPLA2, sequence (P00592 16-146 limits assumed): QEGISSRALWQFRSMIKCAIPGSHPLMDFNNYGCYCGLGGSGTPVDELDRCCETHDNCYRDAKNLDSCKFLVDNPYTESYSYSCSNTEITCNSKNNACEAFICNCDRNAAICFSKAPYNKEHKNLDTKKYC
T4 sequence (P00592 with tags, fused parts or gaps DEL84-88): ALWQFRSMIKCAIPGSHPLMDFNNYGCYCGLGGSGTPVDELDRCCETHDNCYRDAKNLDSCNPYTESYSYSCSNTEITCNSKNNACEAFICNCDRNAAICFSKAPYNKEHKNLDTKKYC

SMILES: C[C@H](CCC(=O)NCCS(=O)(=O)O)[C@H]1CC[C@H]2[C@@H]3[C@H](O)C[C@@H]4C[C@H](O)CC[C@]4(C)[C@H]3CC[C@]12C [TCDOC, taurochenodeoxycholate]
- pKd (PLA2 K53W/W3F): 4.82
- concentration at which the rate increase and decrease is complete (WT (wild type) pig PLA2; 1 mM DMPC vesicles): < 0.12 mM
- peak rate of hydrolysis of DMPC vesicles (WT (wild type) pig PLA2; 1 mM DMPC, 24° C., cholate above 0.04 mM): 80 s⁻¹
- bile salt concentration at the maximum rate (WT (wild type) pig PLA2; 16° C., 1 mM DMPC): 0.013 mM
- bile salt concentration at the maximum rate (WT (wild type) pig PLA2; 29° C., 1 mM DMPC): 0.13 mM
- effect of bile salt on the rate of hydrolysis (monophasic/biphasic) (WT (wild type) pig PLA2; DMPC vesicles, pancreatic PLA2): a rate increase and then a rate decrease at higher concentration
- pKd (proPLA2): 4.57
- rate lowering effect with Naja venom enzyme (Naja venom PLA2): not observed
- Relative Rate-lowering (%) Activity, pPLA2 (pig pancreatic IB PLA2): 26%
- pKd (PLA2 R6M): 3.82
- rate lowering effect with ΔPLA2 mutant [1]: not observed
- efficacy to quench RET signal from TMA-DPH bound to PLA2 (PLA2): most effective
- pKd (PLA2 K10W/W3F): 5.40
- pKd (PLA2 A1W/W3F): 3.68

Reference: patent publication US20080139520A1, “Altering cholesterol and fat uptake by novel allosteric inhibitors of pancreatic phospholipase A2” (priority 2006, published 2008)
